Results taken from US20240374517A1, “LIPIODOL FORMULATION FOR TRANSARTERIAL CHEMOIMMUNOEMBOLIZATION” (Northwestern University, priority 2021, published 2024).

System: HepG2 cells
Assay: Dox uptake and cytotoxicity in HepG2 cells
Conditions: with (20%) vs without (0%) PF127

## COc1cccc2c1C(=O)c1c(O)c3c(c(O)c1C2=O)C[C@@](O)(C(=O)CO)C[C@@H]3O[C@H]1C[C@H](N)[C@H](O)[C@H](C)O1 [Dox, doxorubicin]
CCK-8, 48 hours
  cytotoxicity of Dox: not affected
Dox 10 μM, 30 and 60 minutes
  cellular uptake of Dox: not affected
